Experimental data from article PMC9481151, “Discovery of new symmetrical and asymmetrical nitrile-containing 1,4-dihydropyridine derivatives as dual kinases and P-glycoprotein inhibitors: synthesis, in vitro assays, and in silico studies” (Journal of Enzyme Inhibition and Medicinal Chemistry, 2022).

Key:
SF-539 = experiment: NCI single dose (10 µM) SRB screen; assay type: cell-based, human; conditions: CNS cancer, 48 h
PC-3 = experiment: NCI single dose (10 µM) SRB screen; assay type: cell-based, human; conditions: prostate cancer, 48 h
Staphylococcus aureus = experiment: Agar well diffusion method
SK-MEL-28 = experiment: NCI single dose (10 µM) SRB screen; assay type: cell-based, human; conditions: melanoma, 48 h
UACC-257 = experiment: NCI single dose (10 µM) SRB screen; assay type: cell-based, human; conditions: melanoma, 48 h
HS578T = experiment: NCI single dose (10 µM) SRB screen; assay type: cell-based, human; conditions: breast cancer, 48 h
SR = experiment: NCI single dose (10 µM) SRB screen; assay type: cell-based, human; conditions: leukaemia, 48 h
MOLT-4 = experiment: NCI single dose (10 µM) SRB screen; assay type: cell-based, human; conditions: leukaemia, 48 h
SF-268 = experiment: NCI single dose (10 µM) SRB screen; assay type: cell-based, human; conditions: CNS cancer, 48 h
NCI-H322M = experiment: NCI single dose (10 µM) SRB screen; assay type: cell-based; conditions: non-small cell lung cancer, 48 h
NCI-H226 = experiment: NCI single dose (10 µM) SRB screen; assay type: cell-based, human; conditions: non-small cell lung cancer, 48 h
U251 = experiment: NCI single dose (10 µM) SRB screen; assay type: cell-based, human; conditions: CNS cancer, 48 h
NCI-H23 = experiment: NCI single dose (10 µM) SRB screen; assay type: cell-based, human; conditions: non-small cell lung cancer, 48 h
Escherichia coli = experiment: Agar well diffusion method; conditions: relative to ciprofloxacin
HCC-2998 = experiment: NCI single dose (10 µM) SRB screen; assay type: cell-based, human; conditions: colon cancer, 48 h
IGROV1 = experiment: NCI single dose (10 µM) SRB screen; assay type: cell-based, human; conditions: ovarian cancer, 48 h
LOX IMVI = experiment: NCI single dose (10 µM) SRB screen; assay type: cell-based, human; conditions: melanoma, 48 h
TK-10 = experiment: NCI single dose (10 µM) SRB screen; assay type: cell-based, human; conditions: renal cancer, 48 h
HOP-62 = experiment: NCI single dose (10 µM) SRB screen; assay type: cell-based, human; conditions: non-small cell lung cancer, 48 h
RPMI-8226 = experiment: NCI single dose (10 µM) SRB screen; assay type: cell-based, human; conditions: leukaemia, 48 h
NCI 60 cancer cell lines = experiment: NCI single dose (10 µM) SRB screen, mean over panel; assay type: cell-based, human; conditions: mean over 60 cell lines, 48 h
OVCAR-3 = experiment: NCI single dose (10 µM) SRB screen; assay type: cell-based, human; conditions: ovarian cancer, 48 h
OVCAR-4 = experiment: NCI single dose (10 µM) SRB screen; assay type: cell-based, human; conditions: ovarian cancer, 48 h
MDA-MB-468 = experiment: NCI single dose (10 µM) SRB screen; assay type: cell-based, human; conditions: breast cancer, 48 h
UO-31 = experiment: NCI single dose (10 µM) SRB screen; assay type: cell-based, human; conditions: renal cancer, 48 h
786-0 = experiment: NCI single dose (10 µM) SRB screen; assay type: cell-based, human; conditions: renal cancer, 48 h
DU-145 = experiment: NCI single dose (10 µM) SRB screen; assay type: cell-based, human; conditions: prostate cancer, 48 h
SNB-19 = experiment: NCI single dose (10 µM) SRB screen; assay type: cell-based, human; conditions: CNS cancer, 48 h
Bacillus subtilis = experiment: Agar well diffusion method
HCT-15 = experiment: NCI single dose (10 µM) SRB screen; assay type: cell-based, human; conditions: colon cancer, 48 h
NCI/ADR-RES = experiment: NCI single dose (10 µM) SRB screen; assay type: cell-based, human; conditions: ovarian cancer, 48 h
SN12C = experiment: NCI single dose (10 µM) SRB screen; assay type: cell-based, human; conditions: renal cancer, 48 h
SF-295 = experiment: NCI single dose (10 µM) SRB screen; assay type: cell-based, human; conditions: CNS cancer, 48 h
CAKI-1 = experiment: NCI single dose (10 µM) SRB screen; assay type: cell-based, human; conditions: renal cancer, 48 h
SW-620 = experiment: NCI single dose (10 µM) SRB screen; assay type: cell-based, human; conditions: colon cancer, 48 h
A549/ATCC = experiment: NCI single dose (10 µM) SRB screen; assay type: cell-based, human; conditions: non-small cell lung cancer, 48 h
NCI-H522 = experiment: NCI single dose (10 µM) SRB screen; assay type: cell-based, human; conditions: non-small cell lung cancer, 48 h
RXF 393 = experiment: NCI single dose (10 µM) SRB screen; assay type: cell-based, human; conditions: renal cancer, 48 h
M14 = experiment: NCI single dose (10 µM) SRB screen; assay type: cell-based, human; conditions: melanoma, 48 h
Aspergillus flavus = experiment: Agar well diffusion method
COLO 205 = experiment: NCI single dose (10 µM) SRB screen; assay type: cell-based, human; conditions: colon cancer, 48 h
OVCAR-8 = experiment: NCI single dose (10 µM) SRB screen; assay type: cell-based, human; conditions: ovarian cancer, 48 h
MDA-MB-231 = experiment: NCI single dose (10 µM) SRB screen; assay type: cell-based, human; conditions: breast cancer, 48 h
SNB-75 = experiment: NCI single dose (10 µM) SRB screen; assay type: cell-based, human; conditions: CNS cancer, 48 h
Candida albicans = experiment: Agar well diffusion method
MALME-3M = experiment: NCI single dose (10 µM) SRB screen; assay type: cell-based, human; conditions: melanoma, 48 h
BT-549 = experiment: NCI single dose (10 µM) SRB screen; assay type: cell-based, human; conditions: breast cancer, 48 h
MDA-MB-435 = experiment: NCI single dose (10 µM) SRB screen; assay type: cell-based, human; conditions: melanoma, 48 h
UACC-62 = experiment: NCI single dose (10 µM) SRB screen; assay type: cell-based, human; conditions: melanoma, 48 h
T-47D = experiment: NCI single dose (10 µM) SRB screen; assay type: cell-based, human; conditions: breast cancer, 48 h

## CC1=C(C(=O)OC(C)C)C(c2cccc(C#N)c2)C(C(=O)OC(C)C)=C(C)N1 [Compound 1c, Diisopropyl 4-(3-cyanophenyl)-2,6-dimethyl-1,4-dihydropyridine-3,5-dicarboxylate]
SF-539
  GI% SF-539: – (Only GI% ≥ 10 are shown)
PC-3
  GI% PC-3: 29%
Staphylococcus aureus; Staphylococcus aureus, 24 h, read-out: Diameter of inhibition zone, S. aureus
  zone of inhibition at 1000 µg/mL: 11 mm
Staphylococcus aureus; relative to ciprofloxacin
  % activity index, S. aureus: 45.8%
SK-MEL-28
  GI% SK-MEL-28: – (Only GI% ≥ 10 are shown)
UACC-257
  GI% UACC-257: – (Only GI% ≥ 10 are shown)
HS578T
  GI% HS578T: – (Only GI% ≥ 10 are shown)
SR
  GI% SR: 18%
MOLT-4
  GI% MOLT-4: 17%
SF-268
  GI% SF-268: – (Only GI% ≥ 10 are shown)
NCI-H322M
  GI% NCI-H322M: – (Only GI% ≥ 10 are shown)
NCI-H226
  GI% NCI-H226: – (Only GI% ≥ 10 are shown)
U251
  GI% U251: – (Only GI% ≥ 10 are shown)
NCI-H23
  GI% NCI-H23: – (Only GI% ≥ 10 are shown)
Escherichia coli
  % activity index, E. coli: – (Values below 25 are of limited value and not shown as they refer either to inactive or non-diffusing compounds)
HCC-2998
  GI% HCC-2998: – (Only GI% ≥ 10 are shown)
IGROV1
  GI% IGROV1: – (Only GI% ≥ 10 are shown)
LOX IMVI
  GI% LOX IMVI: – (Only GI% ≥ 10 are shown)
TK-10
  GI% TK-10: – (Only GI% ≥ 10 are shown)
HOP-62
  GI% HOP-62: – (Only GI% ≥ 10 are shown)
RPMI-8226
  GI% RPMI-8226: 17%
NCI 60 cancer cell lines
  Mean GI%: 6%
OVCAR-3
  GI% OVCAR-3: – (Only GI% ≥ 10 are shown)
OVCAR-4
  GI% OVCAR-4: – (Only GI% ≥ 10 are shown)
MDA-MB-468
  GI% MDA-MB-468: 22%
UO-31
  GI% UO-31: – (Only GI% ≥ 10 are shown)
786-0
  GI% 786-0: 16%
DU-145
  GI% DU-145: – (Only GI% ≥ 10 are shown)
SNB-19
  GI% SNB-19: – (Only GI% ≥ 10 are shown)
Bacillus subtilis; Bacillus subtilis, 24 h, read-out: Diameter of inhibition zone, B. subtilis
  zone of inhibition at 1000 µg/mL: 6 mm
Bacillus subtilis; relative to ciprofloxacin
  % activity index, B. subtilis: 26.1%
HCT-15
  GI% HCT-15: 10%
NCI/ADR-RES
  GI% NCI/ADR-RES: – (Only GI% ≥ 10 are shown)
SN12C
  GI% SN12C: – (Only GI% ≥ 10 are shown)
SF-295
  GI% SF-295: – (Only GI% ≥ 10 are shown)
CAKI-1
  GI% CAKI-1: 19%
SW-620
  GI% SW-620: – (Only GI% ≥ 10 are shown)
A549/ATCC
  GI% A549/ATCC: 11%
NCI-H522
  GI% NCI-H522: 11%
RXF 393
  GI% RXF 393: – (Only GI% ≥ 10 are shown)
M14
  GI% M14: – (Only GI% ≥ 10 are shown)
Aspergillus flavus; Aspergillus flavus, 24 h, read-out: Diameter of inhibition zone, A. flavus
  zone of inhibition at 1000 µg/mL: 13 mm
Aspergillus flavus; relative to clotrimazole
  % activity index, A. flavus: 52%
COLO 205
  GI% COLO 205: – (Only GI% ≥ 10 are shown)
OVCAR-8
  GI% OVCAR-8: – (Only GI% ≥ 10 are shown)
MDA-MB-231
  GI% MDA-MB-231: – (Only GI% ≥ 10 are shown)
SNB-75
  GI% SNB-75: 20%
Candida albicans; Candida albicans, 24 h, read-out: Diameter of inhibition zone, C. albicans
  zone of inhibition at 1000 µg/mL: 10 mm
Candida albicans; relative to clotrimazole
  % activity index, C. albicans: 37%
MALME-3M
  GI% MALME-3M: – (Only GI% ≥ 10 are shown)
BT-549
  GI% BT-549: – (Only GI% ≥ 10 are shown)
MDA-MB-435
  GI% MDA-MB-435: – (Only GI% ≥ 10 are shown)
UACC-62
  GI% UACC-62: 14%
T-47D
  GI% T-47D: 30%
